Reference: the supplement of paper PMC11451515

Test system: NOMO1
Experiment: cell viability relative to DMSO control; higher = less cytotoxic
Conditions: 48 h
Procedure, shortened: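 NOMO1, SEM and P12-Ichikawa leukemia cells spent at least four passages adapting to each medium before use. They were seeded at 500 cells/well (NOMO1, SEM) or 1000 cells/well (P12-Ichikawa) in 5 μl in 1536-well plates and pin-dosed with library compounds in DMSO at 11 threefold steps from 47 μM down to 0.79 nM. After 48 h at 37°C, CellTiter-Glo One luminescence was read. Viability is reported as a percentage of the DMSO wells on each plate, with cell-free wells as background.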

[1] = HPLM + 10% dialyzed FBS, 0.000781 µM
[2] = HPLM + 10% dialyzed FBS, 0.00234 µM
[3] = HPLM + 10% dialyzed FBS, 0.00702 µM
[4] = HPLM + 10% dialyzed FBS, 0.0211 µM
[5] = HPLM + 10% dialyzed FBS, 0.0632 µM
[6] = HPLM + 10% dialyzed FBS, 0.19 µM
[7] = HPLM + 10% dialyzed FBS, 0.569 µM
[8] = HPLM + 10% dialyzed FBS, 1.71 µM
[9] = HPLM + 10% dialyzed FBS, 5.12 µM
[10] = HPLM + 10% dialyzed FBS, 15.4 µM
[11] = HPLM + 10% dialyzed FBS, 46.1 µM
[12] = RPMI 5 mM glucose + 10% FBS, 0.000781 µM
[13] = RPMI 5 mM glucose + 10% FBS, 0.00234 µM
[14] = RPMI 5 mM glucose + 10% FBS, 0.00702 µM
[15] = RPMI 5 mM glucose + 10% FBS, 0.0211 µM
[16] = RPMI 5 mM glucose + 10% FBS, 0.0632 µM
[17] = RPMI 5 mM glucose + 10% FBS, 0.19 µM
[18] = RPMI 5 mM glucose + 10% FBS, 0.569 µM
[19] = RPMI 5 mM glucose + 10% FBS, 1.71 µM
[20] = RPMI 5 mM glucose + 10% FBS, 5.12 µM
[21] = RPMI 5 mM glucose + 10% FBS, 15.4 µM
[22] = RPMI 5 mM glucose + 10% FBS, 46.1 µM
[23] = RPMI 5 mM glucose + 10% dialyzed FBS, 0.000781 µM
[24] = RPMI 5 mM glucose + 10% dialyzed FBS, 0.00234 µM
[25] = RPMI 5 mM glucose + 10% dialyzed FBS, 0.00702 µM
[26] = RPMI 5 mM glucose + 10% dialyzed FBS, 0.0211 µM
[27] = RPMI 5 mM glucose + 10% dialyzed FBS, 0.0632 µM
[28] = RPMI 5 mM glucose + 10% dialyzed FBS, 0.19 µM
[29] = RPMI 5 mM glucose + 10% dialyzed FBS, 0.569 µM
[30] = RPMI 5 mM glucose + 10% dialyzed FBS, 1.71 µM
[31] = RPMI 5 mM glucose + 10% dialyzed FBS, 5.12 µM
[32] = RPMI 5 mM glucose + 10% dialyzed FBS, 15.4 µM
[33] = RPMI 5 mM glucose + 10% dialyzed FBS, 46.1 µM

| SMILES | cell viability [1] [%] | cell viability [2] [%] | cell viability [3] [%] | cell viability [4] [%] | cell viability [5] [%] | cell viability [6] [%] | cell viability [7] [%] | cell viability [8] [%] | cell viability [9] [%] | cell viability [10] [%] | cell viability [11] [%] | cell viability [12] [%] | cell viability [13] [%] | cell viability [14] [%] | cell viability [15] [%] | cell viability [16] [%] | cell viability [17] [%] | cell viability [18] [%] | cell viability [19] [%] | cell viability [20] [%] | cell viability [21] [%] | cell viability [22] [%] | cell viability [23] [%] | cell viability [24] [%] | cell viability [25] [%] | cell viability [26] [%] | cell viability [27] [%] | cell viability [28] [%] | cell viability [29] [%] | cell viability [30] [%] | cell viability [31] [%] | cell viability [32] [%] | cell viability [33] [%] |
| --- | --- | --- | --- | --- | --- | --- | --- | --- | --- | --- | --- | --- | --- | --- | --- | --- | --- | --- | --- | --- | --- | --- | --- | --- | --- | --- | --- | --- | --- | --- | --- | --- | --- |
| C[N]1C=C(C2=C1C=CC=C2)\C3=C(\C(=O)NC3=O)C4=C5CC(CN)CC[N]5C6=C4C=CC=C6 (configuration not stated) | 94.9 | 118 | 115 | 101 | 109 | 120 | 115 | 110 | 113 | 90 | 37.4 | 88.5 | 104 | 94.1 | 97.8 | 102 | 100 | 93.5 | 95.8 | 96.8 | 81.3 | 44.1 | 92.8 | 100 | 106 | 114 | 105 | 111 | 105 | 100 | 104 | 88 | 63.4 |
| Cc1cc(C(C)(C)C)c(O)c(C)c1CC1=NCCN1 | 90.1 | 99.5 | 103 | 103 | 101 | 108 | 105 | 107 | 83.8 | 55 | 43.4 | 91.6 | 97.3 | 99.1 | 90 | 86.2 | 105 | 90.8 | 97.8 | 88.9 | 56.4 | 43.2 | 78 | 85.6 | 91.8 | 97.4 | 100 | 100 | 97 | 93.2 | 101 | 61.2 | 54.1 |
| CCN1\C=C(\C(O)=O)C(=O)C2=CC=C(C)N=C12 | 75.3 | 87.7 | 99.4 | 103 | 102 | 116 | 95.8 | 100 | 81.7 | 88.1 | 47.4 | 81.9 | 103 | 98.2 | 89.1 | 103 | 96.6 | 100 | 91 | 99.9 | 90.6 | 56 | 66.6 | 76.6 | 71.2 | 80.1 | 83.2 | 83.5 | 80.5 | 89.5 | 82.5 | 81.6 | 61.7 |
| NC(=O)c1ccc(I)c([N+](=O)[O-])c1 | 130 | 123 | 110 | 138 | 126 | 140 | 128 | 117 | 126 | 124 | 117 | 125 | 125 | 120 | 131 | 119 | 125 | 126 | 140 | 133 | 120 | 118 | 123 | 120 | 137 | 143 | 148 | 132 | 148 | 139 | 143 | 158 | 130 |
| O=C(Nc1cc2cc[nH]c2cn1)c1ccccc1 | 97.5 | 116 | 94.4 | 122 | 108 | 102 | 123 | 103 | 21 | 4.39 | 0.639 | 95.6 | 101 | 97.2 | 110 | 100 | 108 | 99.4 | 88.4 | 54.6 | 18.9 | 2.79 | 96.6 | 104 | 102 | 98.5 | 103 | 105 | 105 | 94 | 59.1 | 45.9 | 7.31 |
| C[C@@H]1[C@H](O)[C@@H](C)/C=C/C=C/C=C/C=C/C=C/C=C/C=C/[C@H](O[C@@H]2O[C@H](C)[C@@H](O)[C@H](N)[C@@H]2O)C[C@@H]2O[C@](O)(C[C@@H](O)C[C@@H](O)[C@H](O)CC[C@@H](O)C[C@@H](O)CC(=O)O[C@H]1C)C[C@H](O)[C@H]2C(=O)O | 113 | 121 | 126 | 117 | 114 | 116 | 124 | 123 | 152 | 138 | 133 | 108 | 124 | 112 | 114 | 111 | 115 | 133 | 119 | 125 | 118 | 135 |  |  |  |  |  |  |  |  |  |  |  |
| NC/1=N/C2=C([NH]C=N2)C(=S)N1 | 107 | 121 | 121 | 133 | 131 | 115 | 122 | 137 | 126 | 145 | 35.1 | 111 | 119 | 123 | 119 | 113 | 115 | 117 | 120 | 109 | 101 | 27.6 |  |  |  |  |  |  |  |  |  |  |  |
| C[C@]1(c2nc3c(C(N)=O)cccc3[nH]2)CCCN1 | 70.8 | 69.6 | 84 | 82.2 | 80.8 | 88.9 | 84.2 | 74.6 | 67.1 | 93 | 31.4 | 65.2 | 80.4 | 72.5 | 79.5 | 76.3 | 76.3 | 85.6 | 72 | 68.9 | 81.3 | 23 | 62.8 | 77 | 76.8 | 82.3 | 87.5 | 93.7 | 89.6 | 90.6 | 73.1 | 77.4 | 26.1 |
